The values that follow come from patent publication US20190169140A1, “IDO1 INHIBITOR AND PREPARATION METHOD AND APPLICATION THEREOF” (SHANDONG LUYE PHARMACEUTICAL CO., LTD., priority 2016, published 2019).

Data set [1] is described as follows: Liver microsome stability, human. To be noted: human liver microsomes; for Remaining % (60 min): 37° C.; for CLint scaled: read-out: Intrinsic clearance. The format is in vitro ADME. The method, then:
(§1) The purpose of research in the present experiment is assessing phase I metabolic stability of the sample for test in CD-1 mice, SD rats, and human liver microsomes.
(§2) The animals and human liver microsomes used in this test system were purchased from BD Gentest, Xenotech, Corning or BioreclamationIVT, and stored in a refrigerator at −80° C. before use.
(§3) The sample for test and control were incubated together with the microsomes under a condition of 37° C. for 60 minutes, and a cold acetonitrile solution (or other organic solvents) containing an internal standard substance was added at a designated time point to terminate the reaction. After centrifugation, a resultant supernatant was assayed in a semiquantitative manner through liquid chromatography tandem mass spectrometry (LC/MS/MS). Software Analyst (AB Sciex, Framingham, Mass., USA) was used for processing retention time of analyte and internal standard, and achieving chromatogram collection, and chromatogram integration
(§4) An in vitro elimination rate constant ke of the sample was obtained by converting a ratio of the sample to a peak area of the internal standard to remaining percentage, to calculate an in vitro elimination rate and half-life of the sample for test.
A general note: Liver microsomes are vesicles of endoplasmic reticulum, rich in cytochrome P450 enzymes.

For another data set, the target named is T1, CYP2D6 (Homo sapiens, UniProt P10635).
T1 construct: tissue Corning Inc. or XenoTech, LLC. or other suppliers; host or cells: mixed human liver microsomes
In words: Inhibition on human liver microsome CYP2D6. To be noted: human liver microsomes; for IC50: 5-in-1 probe substrate. The format is in vitro ADME. The method, then: (§5) The research project aimed at evaluating inhibitory ability of a sample for test on human liver microsome cytochrome P450 isozymes (CYP1A2, CYP2C9, CYP2C19, CYP2D6, and CYP3A4) with use of a 5-in-1 probe substrate for CYP isozymes.
(§6) Mixed human liver microsomes (HLM) were purchased from Corning Inc. (Steuben, N.Y., USA) or XenoTech, LLC. (Lenexa, Kans., USA) or other suppliers, and stored in a condition below −70° C. before use.
(§7) Diluted working solutions of the sample for test in serial concentrations were added to an incubation system containing the human liver microsomes, probe substrate, and accessory factors of a cycling system, and a control containing no sample for test but a solvent was taken as a control for enzymatic activity (100%). Concentration of metabolites generated by the probe substrate in the sample was measured with a method of liquid chromatography-tandem mass spectrometry (LC-MS/MS). Nonlinear regression analysis of mean percentage activity vs concentration of the sample for test was carried out using SigmaPlot (V.11). An IC^50 value was calculated through a three-parameter or four-parameter inflection logarithmic equation.

A short description of data set [2]: Liver microsome stability, mouse. The format is in vitro ADME, CD-1 mice. The following applies: mouse liver microsomes; for CLint scaled: CD-1, read-out: Intrinsic clearance; for Remaining % (60 min): 37° C. Here is the method: as §1, §2, §3, §4
Data set [3] is described as follows: Pharmacokinetics experiment of mice in vivo, single intravenous injection. More on the design: species or system male CD-1 mice. The following applies: Mouse PK, IV 1 mg/kg; for AUC(0-inf) / AUC(0-t) / Vd / clearance / half-life: male, CD-1, plasma. The method, then: The present experiment aimed at researching status of pharmacokinetics of a sample for test in plasma of male CD-1 mice after single intravenous injection.
Three animals in an intravenous group were intravenously injected with the sample for test by 1 mg/kg, and a formulation was 0.2 mg/mL settled solution of 5% DMSO/95% (10% HP-β-CD). 5 minutes, 15 minutes, 30 minutes, 1 hour, 2 hours, 4 hours, 6 hours, 8 hours, and 24 hours after the administration, blood was collected and prepared into a plasma specimen, with an anticoagulant of EDTA-K2. Plasma concentration data was obtained by analyzing the specimen through LC-MS/MS.
The plasma drug concentration data was processed with a non-compartment model using WinNonlin™ Version 6.3 (Pharsight, Mountain View, Calif.) pharmacokinetics software. Following pharmacokinetics parameters were calculated using a log-linear trapezoidal method: elimination phase half-life (T1/2), apparent volume of distribution (Vdss), and clearance rate (CL), mean retention time of drug in body from point 0 to end time point (MRT0-last), mean retention time of drug in body from point 0 to infinite time (MRT0-inf), area under a time-plasma concentration curve from point 0 to end time point (AUC0-last), area under a time-plasma concentration curve from point 0 to infinite time (AUC0-inf), and initial concentration (C0).

Another data set addresses T2, CYP1A2 (Homo sapiens, UniProt P05177).
T2 construct: tissue Corning Inc. or XenoTech, LLC. or other suppliers; host or cells: mixed human liver microsomes
T2 sequence (P05177 1-516): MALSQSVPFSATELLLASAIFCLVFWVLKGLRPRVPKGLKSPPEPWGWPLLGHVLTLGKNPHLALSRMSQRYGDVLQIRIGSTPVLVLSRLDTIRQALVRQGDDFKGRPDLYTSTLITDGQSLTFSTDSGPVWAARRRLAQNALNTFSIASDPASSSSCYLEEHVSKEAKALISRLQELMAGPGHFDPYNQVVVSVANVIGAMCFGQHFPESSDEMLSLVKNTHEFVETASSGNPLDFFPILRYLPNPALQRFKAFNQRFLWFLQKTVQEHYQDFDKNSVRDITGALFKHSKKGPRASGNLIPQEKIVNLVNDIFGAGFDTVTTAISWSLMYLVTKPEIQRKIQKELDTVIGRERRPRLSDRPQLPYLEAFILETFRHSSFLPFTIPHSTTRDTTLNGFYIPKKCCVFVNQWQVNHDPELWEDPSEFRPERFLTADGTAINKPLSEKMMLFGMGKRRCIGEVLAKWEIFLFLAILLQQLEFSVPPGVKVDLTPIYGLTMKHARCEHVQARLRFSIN
In words: Inhibition on human liver microsome CYP1A2. The format is in vitro ADME. The following applies: human liver microsomes; for IC50: 5-in-1 probe substrate. The method, then:
as §5, §6, §7

The target in the next data set is T3, CYP2C19 (Homo sapiens, UniProt P33261).
T3 construct: tissue Corning Inc. or XenoTech, LLC. or other suppliers; host or cells: mixed human liver microsomes
In words: Inhibition on human liver microsome CYP2C19. The format is in vitro ADME. The following applies: human liver microsomes; for IC50: 5-in-1 probe substrate. Here is the method:
as §5, §6, §7

Data set [4] in a line: Liver microsome stability, rat. The format is in vitro ADME, SD rats. The following applies: rat liver microsomes; for CLint scaled: SD, read-out: Intrinsic clearance; for Remaining % (60 min): 37° C. The method, then: as §1, §2, §3, §4
In a further data set the test system is mice colon cancer CT26. To be noted: according to document reports; cited from earlier work.

T3 sequence (P33261 whole entry): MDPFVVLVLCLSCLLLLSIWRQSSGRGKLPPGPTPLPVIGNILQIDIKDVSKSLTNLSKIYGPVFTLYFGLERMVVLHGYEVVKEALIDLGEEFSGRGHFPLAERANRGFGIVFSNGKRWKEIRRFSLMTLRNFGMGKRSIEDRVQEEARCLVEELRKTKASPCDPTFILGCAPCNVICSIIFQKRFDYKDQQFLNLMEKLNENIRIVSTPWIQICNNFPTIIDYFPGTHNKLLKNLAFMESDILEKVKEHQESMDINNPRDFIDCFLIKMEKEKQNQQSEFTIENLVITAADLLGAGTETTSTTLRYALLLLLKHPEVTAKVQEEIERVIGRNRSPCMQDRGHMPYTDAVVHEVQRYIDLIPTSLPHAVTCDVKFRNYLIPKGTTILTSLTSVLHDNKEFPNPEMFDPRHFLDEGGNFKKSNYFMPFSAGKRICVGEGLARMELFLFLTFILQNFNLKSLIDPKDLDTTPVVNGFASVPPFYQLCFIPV
T1 sequence (P10635 whole entry): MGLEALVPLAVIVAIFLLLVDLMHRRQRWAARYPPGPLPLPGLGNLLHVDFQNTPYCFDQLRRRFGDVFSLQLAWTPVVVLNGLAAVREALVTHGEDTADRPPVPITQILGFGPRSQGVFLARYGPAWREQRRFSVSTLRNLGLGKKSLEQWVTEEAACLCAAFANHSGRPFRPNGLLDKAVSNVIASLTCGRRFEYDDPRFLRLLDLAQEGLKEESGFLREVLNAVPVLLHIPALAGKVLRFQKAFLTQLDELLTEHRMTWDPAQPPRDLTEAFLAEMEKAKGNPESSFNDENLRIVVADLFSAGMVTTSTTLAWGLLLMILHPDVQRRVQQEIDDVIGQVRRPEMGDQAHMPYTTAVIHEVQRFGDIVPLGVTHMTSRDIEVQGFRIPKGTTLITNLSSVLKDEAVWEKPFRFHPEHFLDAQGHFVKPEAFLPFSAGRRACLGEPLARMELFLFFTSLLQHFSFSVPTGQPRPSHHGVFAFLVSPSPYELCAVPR

The IC50 is the concentration at which inhibition is half-maximal. A lower IC50 goes with greater potency. As usually defined, the AUC(0-inf) is the area under the concentration-time curve extrapolated to infinity. Low readings indicate less exposure, high ones more exposure. For orientation: AUC(0-t) means exposure summed from dosing to a finite time, without extrapolation to infinity. A low value points to low exposure. By Vd is commonly meant a proportionality between amount in the body and measured concentration, not a real space. High values mean wide distribution into tissue, low ones little distribution into tissue. A word on the clearance: it is a measure of how efficiently the substance is removed, as volume per time. What is called half-life is the time in which the quantity being followed falls by half. A high value points to slow decline. Regarding `CC(=O)NCCSc1nonc1/C(=N/O)Nc1ccc(F)c(Br)c1` [Compound 0227], in data set [1], the “metabolic stability in words” value is on record as “metabolized in a moderate manner”, the “Remaining % (60 min)” value is 56.9% and the CLint scaled turned out to be 15.3 mL/min/kg. This compound registered an IC50 against CYP2D6 of 26.1 µM. Also, in data set [2], the CLint scaled amounted to 275 mL/min/kg, the “metabolic stability in words” value is reported as “metabolized quickly” and the “Remaining % (60 min)” value is given as 11.0%. In data set [3], this compound came in with an AUC(0-inf) of 0.628 µM·h, an AUC(0-t) of 0.624 µM·h, a Vd of 2.66 L/kg and a clearance of 64.2 mL/min/kg. Moreover, the half-life in data set [3] is 0.867 h. Besides, the IC50 against CYP1A2 stood at 13 µM. In addition, at CYP2C19, the “inhibiting effect on CYP2C19 in words” value is reported as “intermediate degree” and it took 3.61 µM to reach half-maximal inhibition (IC50). In data set [4], the CLint scaled is 91.9 mL/min/kg, the “metabolic stability in words” value is on record as “metabolized quickly” and the “Remaining % (60 min)” value is recorded as 21.6%.
Regarding `NC(=O)NCCSc1nonc1/C(=N/O)Nc1ccc(F)c(Br)c1` [Compound 0231], in data set [1], the “metabolic stability in words” value is reported as “metabolized in a relatively steady manner”, the “Remaining % (60 min)” value was found to be 81.6% and the CLint scaled is under 8.6 mL/min/kg. In addition, on CYP2D6, the “inhibiting effect on CYP2D6 in words” value is “relatively weak effect” and the IC50 is over 50 µM. Further, in data set [2], the CLint scaled was 134 mL/min/kg, the “metabolic stability in words” value is “metabolized quickly” and the “Remaining % (60 min)” value was determined as 35.8%. Moreover, in data set [3] (plasma, 8 h), the “Conc. (8 h)” value is listed as 8.16/ND nM. In data set [3], this compound came in with an AUC(0-inf) of 0.881 µM·h, an AUC(0-t) of 0.852 µM·h, a Vd of 4.85 L/kg and a clearance of 55.1 mL/min/kg. This compound also had a half-life in data set [3] of 2.44 h. Besides, at CYP1A2, the “inhibiting effect on CYP1A2 in words” value was “relatively weak effect” and the IC50 was over 50 µM. Also, at CYP2C19, the “inhibiting effect on CYP2C19 in words” value is listed as “relatively weak effect” and the IC50 stood at 36.4 µM. In addition, in data set [4], the CLint scaled came to 23.7 mL/min/kg, the “metabolic stability in words” value is given as “metabolized in a relatively steady manner” and the “Remaining % (60 min)” value is recorded as 64.8%.
For `NS(=O)(=O)NCCNc1nonc1C(=NO)Nc1ccc(F)c(Br)c1` [Compound 360, INCB024360, reference compound], the “growth of tumors in mice colon cancer CT26 model” value in the data set with mice colon cancer CT26 is on record as “effectively inhibit growth of tumors”.
